The test system of the experiment is donor HSC engraftment. Briefly: Allogeneic (minor MHC-mismatched) transplantation, donor chimerism in peripheral blood. The experiment is classed as in vivo, BALB.B mice. How it is done: A. Schematic of allogeneic transplantation protocol. BALB.B mice (H-2^b, Thy1.2, CD45.2) were recipients for B6 donors (H-2b, Thy1.1, CD45.1); ACK2 was injected 10 days prior transplantation, AZA was administered days −5 through −1 in dose 2.5 or 5 mg/kg/d, anti-CD4/CD8 were injected in dose 100 μg at days −2, −1 and at the day of transplant (day 0); recipients received 15×10^6 WBM cells or 5×10^4 LSK at d0; chimerism analysis was assessed by flow cytometry using CD45 marker to distinguish between donor and recipient total, myeloid (Gr1^+Mac1^+), B-cells (CD19^+CD3^−) and T-cells (CD19^−CD3^+). B. Multilineage donor-derived chimerism after conditioning with ACK2, AZA 2.5 mg/kg, AZA 5 mg/kg or their combination and transplantation of 15×10^6WBM cells. Chimerism levels from peripheral blood are shown at 4, 14 and 26 weeks post-HCT. Data represent mean±SD (n=4 per group). C. Multilineage donor-derived chimerism in peripheral blood at 4, 14 and 26 weeks following conditioning with single agent ACK2, single agent AZA 5 mg/kg/d or their combination and transplantation of 5×10^4 Lin^− Sca1^+c-Kit^+ cells (LSK). Data represent mean±SD (n=3-5 per group) between the donor and recipient.
Mice. […]
Bone marrow cell preparation and HSC isolation for transplantation experiments. […] Cells were filtered through 70-μm filter, lysed in ACK lysis buffer and counted on Invitrogen Countess. […]

Structures are written as SMILES.

As to `Nc1ncn([C@@H]2O[C@H](CO)[C@@H](O)[C@H]2O)c(=O)n1` [AZA, 5-Azacytidine], the donor engraftment result (AZA 5 mg/kg/d, anti-CD4/CD8, 15×10^6 allogeneic WBM cells) was “successful donor engraftment was achieved”. Further, for the setting “AZA alone group, 15×10^6 allogeneic WBM cells”, the “total donor chimerism over time” value is “noted to decrease”.

Values taken from patent publication US12564609B2, “Hematopoietic stem cell engraftment with a combination of agents” (The Board of Trustees of the Leland Stanford Junior …, priority 2020, dated 2026).
